Assays:
[1] = system: untreated metastatic soft tissue sarcomas (STS) and advanced pre-treated anthracyline-naïve breast cancer (ABC); experiment: Phase I clinical trial (Example 1): antitumor activity of ET-743 in combination with doxorubicin; format: in vivo, human
Experimental: In this multicenter dose and LTS finding trial, patients were assigned consecutively to start either with sequence A (ET-743 before Doxo) or with the reverse sequence (B) at the following dose levels every 21 days: […] Oral steroids premedication for ET-743 was given 24 h before and for 48 h following the day of treatment. […] Patients continued treatment until progressive disease (PD) or intolerance, and were […] 2 cycles for activity. In this study, 22 patients were enrolled and evaluable. The patients were required to have normal liver, renal, cardiac and haematologic functions and good performance status for entry into the study. Enrolment was restricted to breast cancer and soft tissue sarcoma.

[2] = Phase I clinical trial (Example 1): pharmacokinetics of both drugs for the 2 sequences; format: in vivo, human; conditions: for influence of order of administration on pharmacokinetics: ET-743 and Doxo, sequence A versus B; for comparison of the plasma disposition in patients receiving both sequences: ET-743 and doxorubicin, sequences A and B, cycle 1 and cycle 2
Experimental: Pharmacokinetic [PK] of both drugs was determined for the 2 sequences at cycle 1 and cycle 2, when patients received the drugs in the reverse order of administration. Alternating sequence was discontinued at observation of dose limiting toxicity [DLT]: observation of grade 4 hematological toxicity for more than 3 days at the entry level. Both drugs were administered on day 1, with a 1 h interval between the 2 drugs (ET-743, 3-hr infusion i.v. and Doxo, 1-hr infusion i.v push with steroids & 5-HT3 antagonists as antiemetic prophylaxis). Oral steroids premedication for ET-743 was given 24 h before and for 48 h following the day of treatment. Doxo was administered at the fixed dose of 60 mg/m^2, while ET-743 was started at 600 μg/m^2 and escalated thereafter in subsequent cohorts of at least 3 new cases. Patients continued treatment until progressive disease (PD) or intolerance, and were restaged every 2 cycles for activity.

[3] = human, in vivo
[4] = ET-743 with doxorubicin; tests on animal models; WO 0236135; cited from earlier work
sarcoma cell line = conditions: ET-743 and doxorubicin, Meco et al. 2003; cited from earlier work
[5] = system: sarcoma and breast and ovarian carcinoma; conditions: ET-743 alone; phase I intravenous infusion schedules; cited from earlier work
[6] = system: human tumor xenografts, including melanoma and ovarian and breast carcinoma; conditions: ET-743 alone; human tumor xenografts grown in athymic mice; cited from earlier work
[7] = system: transplanted human sarcomas; conditions: ET-743 and doxorubicin; mice with transplanted human sarcomas; Meco et al. 2003; cited from earlier work
[8] = Phase I clinical trial (Example 2): safety profile and DLT of ET-743 days 1 and 8 with doxorubicin day 1; conditions: fixed Doxo dose day 1 with ET-743 700 μg/m^2 days 1 and 8, every 21 days

Compound | antitumor activity ([1]; 600-700 μg/m^2 of ET-743 in combination with Doxo) | patients with confirmed partial response (PR) ([1]; all ET-743 dose levels + Doxo 60 mg/m^2, 22 evaluable patients) | antitumor activity of the combination ([1]; combination of ET-743 and doxorubicin, phase I clinical trials) | influence of order of administration on pharmacokinetics [2] | comparison of the plasma disposition in patients receiving both sequences [2] | tolerability of the combination [3] | effect of the combination [4] | effect of the combination (sarcoma cell line) | responses in patients [5] | antineoplastic activity [6] | effect of the combination [7] | MTD, Doxo part [8]
COc1cc2c(cc1O)CCN[C@]21CS[C@@H]2c3c(OC(C)=O)c(C)c4c(c3[C@H](COC1=O)N1[C@@H]2[C@H]2c3c(cc(C)c(OC)c3O)C[C@@H]([C@@H]1O)N2C)OCO4 [ET-743, ecteinascidin 743] | Antitumor activity was observed | 5 pts | evidence of antitumor activity | did not influence the pharmacokinetics | did not reveal any significant pharmacokinetic interaction | tolerable and feasible | synergistic effect | additive effect | Promising responses | potent antineoplastic activity | additive effect | –
COc1cccc2c1C(=O)c1c(O)c3c(c(O)c1C2=O)C[C@@](O)(C(=O)CO)C[C@@H]3O[C@H]1C[C@H](N)[C@H](O)[C@H](C)O1 [doxorubicin] | – | – | – | did not influence the pharmacokinetics | did not reveal any significant pharmacokinetic interaction | – | – | – | – | – | – | 50 mg/m^2
